Measured values as given in US6602852B1, “Basic peptides and pharmaceutical compositions containing same” (NST NeuroSurvival Technologies, Ltd., priority 1998, dated 2003).
Where two headings read alike, the source gives them in different places.

Key:
[1] = system: HeLa S3 cells undergoing dopamine (DA)-induced apoptosis
Protocol: Said compounds were each dissolved in TBS (Tris Buffered Saline; 10 mM Tris PH 8.0; 150 mM NaCl), at a stock concentration of 10 mM.
HeLa S3 cells (ATCC CCL-2.2) were cultured on a glass chamber slide (Nunc) on a culture area of […]. Chamber slides were pre-coated with 1% gelatin (Sigma) Cells were seeded at a density of 8×10^4 cells/chamber, in a volume of 300 μl of culture medium [Dulbecco's Modified Eagle's Medium (DMEM) supplemented with 2 mM of L-Glutamine; 100 units/ml of Penicilin; 100 μg/ml of Streptomycin; 12.5 units/ml of Nystatin and 10% of Fetal Calf Serum (FCS)]. Following 24 hours of incubation the cells were treated with an apoptotic trigger [i.e. dopamine (DA), which is a well characterized model of apoptosis (Lou et al., J. Biol. Chem. 1998; 273:3756-3764)].
For the DA treatment, the culture medium was replaced by a low serum containing medium (2% FCS), with 500 μM of dopamine (from RBI, Mass., USA) for 18 hours.
The evaluation was performed by staining with Hoechst 33342 dye (Molecular probes). This blue fluorescent dye is rapidly permeable into cells and stains DNA. Hoechst 33342 was added to growing cultures at a concentration of 1 μg/ml and 20 minutes later, the cells were visualized under UV light microscopy. The relative number of apoptotic cells with condensed or fragmented chromatin was then evaluated and compared with non-apoptotic cells which characteristically show a pale and diffuse staining. Photomicrographs were taken for documentation. […] This method was used to evaluate the level of apoptosis in cultured cells prior to binding to the NST300 compounds.
Apoptotic, as well as control untreated cells were grown as specified above and washed twice with TBS. The slides were then incubated with the NST300 compound at concentrations of 250-750 nM for 60 minutes, in a total volume of 100 μl. Slides were then dipped into a Couplin Jar containing 50 ml of TBS, and then incubated with 50 ng/ml of a sterptavidin reagent labeled with FITC (Fluorescein Isothiocyanate Conjugated, from Jackson Immunolaboratory U.S.A.). […] The slides were then washed with TBS as above and were then mounted with Fluoroguard antifade reagent (from Biorad Calif., USA).
The binding was then evaluated with a fluorescent microscope (IX70; Olympus), using a NIBA filter (Narrow Interference Blue A from Olympus).

[2] = system: HeLa cells undergoing dopamine-induced apoptosis; details: 750 nM
Protocol: HeLa cells were plated on tissue culture plates at a density of 3×10^6 cells/10 cm dish, and grown in a DMEM medium containing 10% FCS, as described in A. The cells were then incubated at 37° C. overnight, and then the medium was replaced with a medium containing 2% FCS and 500 μM of dopamine. 18 hours later, the medium was aspirated and discarded, and 10 ml of Phosphate Buffered Saline pH 7.4 (PBS) were added to the culture dish. The cells which were detached from the culture dish into the PBS were collected. These cells represent advanced apoptotic cells. The remaining cells which were attached to the culture dish were trypsinized by the addition of 2 ml of trypsin for 2 minutes at 37° C., followed by the addition of 10 ml of a medium containing 10% of FCS. The cells were then washed with PBS containing 2% Bovine Serum Albumin (BSA), and resuspended in TBS containing 2% BSA (TBS-BSA). These cells were regarded as early apoptotic cells. […] Only non-treated cells that were attached to the culture dish were used as control cells for the FACS analysis.
A set of 3 different cell types was taken:
The incubation with the NST300 compounds or control compound was performed in a final volume of 100 μl TBS-BSA, 5 μg/ml of propidium iodide (PI) and 750 nM of the tested compound or the control compound.
PI is a red fluorescent dye that stains DNA. […] Only cells that are in advanced apoptotic stages, or cells that have already died by apoptosis or necrosis will be permeable to PI and will be stained with the dye. […] The cells were then washed in 500 μl of cold TBS-BSA and centrifugated as before. The cells were then suspended in 100 μl of TBS-BSA containing streptavidin conjugated to fluorescein (FITC). […] Thereafter, the cells were washed three times in TBS-BSA and were taken for FACS analysis.
The FACS analysis was performed on a Beckton-Dickinson cell sorter, using lysis II software. Excitation was at 488 nm and the emission or FITC detection was at 535 nm and for PI detection at 585 nm.

[3] = system: clotting induced by negatively charged phospholipids in normal plasma
Protocol: The ability of NST300 compounds to inhibit coagulaton catalyzed by negatively—charged phospholipids was evaluated in a standard coagulation test of the Russell viper venom (RVV) assay. The RVV reagent directly activates factor x present in the plasma, thus promoting prothrombinase complex formation. This reagent is widely used as a standard phospholipid responsive clotting test. (Thiagarajan et al., Blood, 1986; 869-874).
The RVV reagent kit, containing RVV and negatively charged phospholipids, from Gradipore, Australia was used. The reactions were started by mixing 100 μl of RVV reagent, and 100 μl of quality control plasma collected from normal individuals (commercially available from Instrumentation Laboratory, Italy). Clotting time was determined as the time-point beyond which the continuously mixed reaction ingredients in the test tube, could no longer be aspirated with a pasteur pipette. Clotting time was measured independently by two separate researchers.

[4] = system: procoagulant activity of apoptotic HeLa S3 cells; details: 0.5 μM; for effect on procoagulant effect of apoptotic cells: FIG. 5a
Protocol: In the standard APTT test, clot formation is triggered by recalcification of plasma and addition of cephalin, i.e. negatively-charged phospholipids. Time until clot formation was measured as described in Example 3. […] In the modified APTT test, used in the present study, the addition of negatively-charged phospholipids (cephalin) was replaced by addition of apoptotic cells.
The cultured medium was discarded, and cells that were loosely attached to the growing surface, were collected in PBS, as described in Example 2B. These cells were washed and resuspended in TBS, and were regarded as advanced apoptotic cells. Equal numbers of apoptotic or control non-treated cells (10^5) in a volume of 100 μl, were mixed with 100 μl of 25 mM of CaCl2 and the clotting time was measured. […] Inhibition of their procoagulant activity by NST300 compounds was tested following pre-incubation of apoptotic cells with the different NST300 compounds.
Pre-incubation of equal numbers of apoptotic or control non-treated cells (10^5) with NST300 compounds was for 10 minutes at room temperature in a final volume of 100 μl. The compounds were used at concentration of 0.5 μM. The results can be seen in FIG. 5a.

[5] = system: Human Umbilical Vein Endothelial Cells (HUVEC); details: 500 ng of compound, 40 minutes
Protocol: HUVEC (CC-2517, obtained from Clonetics, Walkersville, Md.) were grown on tissue culture flasks in Endothelial cell medium (EGM-2 Bulletkit, CC 3162, Clonetics). Mid-confluent cultures were harvested using Trypsine/EDTA solution (CC-5012, Clonetics). The cells were rinsed twice with PBS containing 2% BSA and kept on ice. Samples of 10^6 cells were tested for binding.
The reactions were incubated at room temperature for 40 minutes and then 400 μl of TBS-BSA were added and cells were collected by centrifugation at 3000×g for 3 minutes. Cells were washed in 1 ml of TBS-BSA and centrifuged as before and then suspended in 100 μl of TBS-BSA containing streptavidin conjugated to flourescein (FITC) for detection of the bound biotinylated compound. […] Thereafter, 400 μl of TBS-BSA were added and cells were centrifuged and washed again with 1 ml of TBS-BSA as before and then resuspended in 400 μl of TSS and taken for FACS analysis.
The FACS analysis was performed on Beckton-Dickinson cell sorter, using lysis II software. Excitation was at 488 nm and emission for FITC detection was a 535 nm.
A dot plot analysis was done for each treatment.

apoptotic hepatocytes = assay type: in vivo; details: data not shown
Protocol: All animals were killed 2 hr after administration of antibody followed by organ removal. Heart, lung and liver were collected.
Formalin fixed paraffin-embedded tissues were sectioned (5 μm) for staining with Hematoxylin/Eosin or other techniques.
Endogenous peroxidase activity was blocked by incubation with 3% H2O2.
After washing with PBS, staining was developed with 3,3-diaminobenzidine tetrahydrochloride (DAB), and counterstained with Hematoxylin.
Liver sections from different lobes were used for detection of stained apoptotic cells compared to normal cells.
The percentage of apoptotic cells in the fields was estimated by evaluating parallel sections stained with Hematoxylin/Eosin. Analysis was performed blindly, since the pathologist performing the histological evaluation was unaware of the assignment of mice to the treatment or control group.

[6] = molecular target: anionic phospholipid membranes; details: cited from earlier work
[7] = rabbits, intravenous injection; cited from earlier work

## Myristate-GGGKKKKKRFSFKKSFKLSGFSFKKNKKK (SEQUENCE ID NO. 1)-(biotin) [NST301]
[1]; 750 nM, FIG. 2c
  staining of advanced apoptotic cells: intense labeling
  staining of cells in early apoptotic stages: light, peripheral staining
[1]; 750 nM, fluorescent microscopy
  staining of control non-treated HeLa cells: few of them were stained, and very faintly
[2]; FIG. 3c
  detection of early apoptotic cells: potent detector
[2]; early apoptotic cells
  early apoptotic cells double stained also with PI: 43%
  total FITC/total PI ratio: 2.2
[2]; early apoptotic cells, FIG. 3b
  binding intensity: ratio of FITC mean value of apoptotic cells to that of control cells: 4 fold
[2]; advanced apoptotic cells
  total FITC/total PI ratio: 1.2
[3]; 0.5-50 μM, control clotting time 40 seconds
  increase of clotting time by a factor as compared to control: 2.6
[4]
  effect on procoagulant effect of apoptotic cells: fully reversing
[4]; apoptotic cells
  increase of clotting time by a factor: 2

## GGGKKKKKRFSFKKSFKLSGFSFKKNKKK (SEQUENCE ID NO. 3) (Biotin)-OH [NST301-C, reference compound]
[1]; 250-750 nM compound, streptavidin-FITC, fluorescent microscopy
  staining of DA-induced apoptotic HeLa cells: did not show any significant binding
[5]
  cells FITC positive: 7%
[3]; RVV test, FIG. 4
  anti-coagulant effect: Significant, though moderate effect
[4]
  effect on procoagulant effect of apoptotic cells: mild effect
[4]; listed as NST 301-C
  effect on procoagulant effect of apoptotic cells: very modest effect

## Annexin V: 320 amino acid protein of the annexin family, Ca2+-dependent binding to anionic phospholipid membranes
Apoptotic hepatocytes
  staining pattern when exogenously added to the apoptotic cells: same pattern of staining
[6]
  Kd: 0.01 to 1 nM
[7]
  clearance within 5 minutes: 90%
